Results taken from patent US20240124460A1, “METHODS AND COMPOSITIONS FOR TARGETED PROTEIN DEGRADATION” (Ranok Therapeutics (Hangzhou) Co. Ltd., priority 2020, published 2024).

Experiments:
HSP90α protein = biological target: T1, HSP90α protein (Homo sapiens, UniProt P07900); experiment: HSP90α-binding FP (BODIPY) assay; settings: FP competition with BODIPY-labeled RNK04010
T1 construct: purchased BPS Bioscience #50298
Procedure: Binding of test compounds to HSP90α protein was measured by fluorescent polarization (FP) using the HSP90α (N-terminal) Assay Kit (BPS Bioscience, #50298), following the manufacturer's instructions, except as noted. Fluorescently labeled HSP90-binding compounds, either the provided FITC-geldanamycin (5 nM final concentration) or RNK04010, a triazolone-based HSP90 binding small molecule labeled with BODIPY through a piperazine-phenyl linker (5 nM final concentration) were employed. A 2.5-fold serial dilution of each test compound ranging from 20 μM to 5.2 nM was assayed for binding to HSP90α. After the final step of adding HSP90α protein to each assay well, plates were mixed by brief shaking, incubated at 25° C. for 120 min for FITC-geldanamycin or 300 min for RNK04010, and fluorescence was measured using a PerkinElmer EnVision Plate Reader.

[1] = test system: MV-4-11 human acute myeloid leukemia; experiment: MV-4-11 CCK-8 proliferation assay; format: cell-based; settings: Homo sapiens, MV4-11; MV-4-11 cells, 72 hr
In short: (§1)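 Cells grown per ATCC recommendations were treated with 3-fold serial compound dilutions from 20 μM to 1.02 nM. CCK-8 absorbance was converted to % inhibition against DMSO-treated cells, with cell-free medium containing DMSO as the blank.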

[2] = test system: U-87 MG human glioblastoma; experiment: U87 MG CCK-8 proliferation assay; format: cell-based; settings: Homo sapiens, U-87 MG, 72 h, U-87 MG cells, read-out: U87MG CCK-8
In short: as §1

Compound	IC50 (HSP90α protein)	EC50 [1]	EC50 [2]
CCOc1cc(N2CCC(C(=O)N3CCN(c4ccc(-n5c(O)nnc5-c5cc(C(C)C)c(O)cc5O)cc4)CC3)CC2)ccc1Nc1ncc2c(n1)N(C)c1ccccc1C(=O)N2C [Compound 023, 2-((4-(4-(4-(4-(3-(2,4-dihydroxy-5-isopropylphenyl)-5-hydroxy-4H-1,2,4-triazol-4-yl)phenyl)piperazine-1-carbonyl)piperidin-1-yl)-2-ethoxyphenyl)amino)-5,11-dimethyl-5,11-dihydro-6H-benzo[e]pyrimido[5,4-b][1,4]diazepin-6-one]	100 to 1000 nM	< 100 nM	100 to 1000 nM
CCOc1cc(N2CCC(C(=O)N3CCC(CN4CCN(Cc5ccc(-n6c(C(N)=O)nnc6-c6cc(CC)c(O)cc6O)cc5)CC4)CC3)CC2)ccc1Nc1ncc2c(n1)N(C)c1ccccc1C(=O)N2C [Compound 034, 4-(4-((4-((1-(1-(4-((5,11-dimethyl-6-oxo-6,11-dihydro-5H-benzo[e]pyrimido[5,4-b][1,4]diazepin-2-yl)amino)-3-ethoxyphenyl)piperidine-4-carbonyl)piperidin-4-yl)methyl)piperazin-1-yl)methyl)phenyl)-5-(5-ethyl-2,4-dihydroxyphenyl)-4H-1,2,4-triazole-3-carboxamide]	100 to 1000 nM	< 100 nM	100 to 1000 nM
CCOc1cc(N2CCC(C(=O)N3CCC(CN4CCC(Cc5ccc(-n6c(O)nnc6-c6cc(C(C)C)c(O)cc6O)cc5)CC4)CC3)CC2)ccc1Nc1ncc2c(n1)N(C)c1ccccc1C(=O)N2C [Compound 044, 2-((4-(4-(4-((4-(4-(3-(2,4-dihydroxy-5-isopropylphenyl)-5-hydroxy-4H-1,2,4-triazol-4-yl)benzyl)piperidin-1-yl)methyl)piperidine-1-carbonyl)piperidin-1-yl)-2-ethoxyphenyl)amino)-5,11-dimethyl-5,11-dihydro-6H-benzo[e]pyrimido[5,4-b][1,4]diazepin-6-one]	< 100 nM	< 100 nM	< 100 nM
CCOc1cc(N2CCC(C(=O)N[C@H](C)c3ccc(CN4CCC(Cc5ccc(-n6c(O)nnc6-c6cc(C(C)C)c(O)cc6O)cc5)CC4)cc3)CC2)ccc1Nc1ncc2c(n1)N(C)c1ccccc1C(=O)N2C [Compound 045, (R)—N-(1-(4-((4-(4-(3-(2,4-dihydroxy-5-isopropylphenyl)-5-hydroxy-4H-1,2,4-triazol-4-yl)benzyl)piperidin-1-yl)methyl)phenyl)ethyl)-1-(4-((5,11-dimethyl-6-oxo-6,11-dihydro-5H-benzo[e]pyrimido[5,4-b][1,4]diazepin-2-yl)amino)-3-ethoxyphenyl)piperidine-4-carboxamide]	100 to 1000 nM	< 100 nM	100 to 1000 nM

Now from value to molecule:

IC50 (HSP90α protein)	EC50 [1]	EC50 [2]	Compound
< 100 nM	< 100 nM	< 100 nM	CCOc1cc(N2CCC(C(=O)NCC3CCN(C(=O)C4CCN(Cc5ccc(-n6c(O)nnc6-c6cc(C(C)C)c(O)cc6O)cc5)CC4)CC3)CC2)ccc1Nc1ncc2c(n1)N(C)c1ccccc1C(=O)N2C [Compound 041, N-((1-(1-(4-(3-(2,4-dihydroxy-5-isopropylphenyl)-5-hydroxy-4H-1,2,4-triazol-4-yl)benzyl)piperidine-4-carbonyl)piperidin-4-yl)methyl)-1-(4-((5,11-dimethyl-6-oxo-6,11-dihydro-5H-benzo[e]pyrimido[5,4-b][1,4]diazepin-2-yl)amino)-3-ethoxyphenyl)piperidine-4-carboxamide]
100 to 1000 nM	< 100 nM	100 to 1000 nM	CCOc1cc(N2CCC(C(=O)N3CCN(Cc4ccc(-n5c(O)nnc5-c5cc(C(C)C)c(O)cc5O)cc4C(F)(F)F)CC3)CC2)ccc1Nc1ncc2c(n1)N(C)c1ccccc1C(=O)N2C [Compound 046, 2-((4-(4-(4-(4-(3-(2,4-dihydroxy-5-isopropylphenyl)-5-hydroxy-4H-1,2,4-triazol-4-yl)-2-(trifluoromethyl)benzyl)piperazine-1-carbonyl)piperidin-1-yl)-2-ethoxyphenyl)amino)-5,11-dimethyl-5,11-dihydro-6H-benzo[e]pyrimido[5,4-b][1,4]diazepin-6-one]
